Reference: patent publication US12258328B2, “6-membered heteroaryl-containing aminopyridine compounds as EGFR inhibitors” (YUHAN CORPORATION, priority 2021, dated 2025)
Like-named read-outs stand apart in the source and are kept apart here.

How the values were obtained:
EGFR del19/T790M/C797S = EGFR del19/T790M/C797S (Homo sapiens, UniProt P00533, C797S/DEL746-750/T790M); test: Biochemical EGFR kinase assay (Lance Ultra TR-FRET), triple mutant del19/T790M/C797S
Summary of the method: (§1)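 In this biochemical assay, phosphorylation after a one-hour room-temperature reaction was detected with europium-labelled anti-phosphopeptide antibody at 2 nM final concentration.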

EGFR L858R/T790M/C797S = EGFR L858R/T790M/C797S (Homo sapiens, UniProt P00533, C797S/L858R/T790M); test: Biochemical EGFR kinase assay (Lance Ultra TR-FRET), triple mutant L858R/T790M/C797S
Summary of the method: as §1

EGFR del19/C797S = EGFR del19/C797S (Homo sapiens, UniProt P00533, C797S/DEL746-750); test: Biochemical EGFR kinase assay (Lance Ultra TR-FRET), double mutant del19/C797S
Summary of the method: as §1

EGFR L858R/C797S = EGFR L858R/C797S (Homo sapiens, UniProt P00533, C797S/L858R); test: Biochemical EGFR kinase assay (Lance Ultra TR-FRET), double mutant L858R/C797S
Summary of the method: as §1

EGFR wildtype = EGFR wildtype (Homo sapiens, UniProt P00533); test: Biochemical EGFR kinase assay (Lance Ultra TR-FRET), wildtype
Summary of the method: as §1

[1] = ATP at Km, read-out: IC50 del19/T790M/C797S, Km ATP
[2] = IC50 del19/T790M/C797S, 100 μM ATP
[3] = ATP at Km, read-out: IC50 L858R/T790M/C797S, Km ATP
[4] = IC50 L858R/T790M/C797S, 100 μM ATP
[5] = ATP at Km, read-out: IC50 del19/C797S, Km ATP
[6] = ATP at Km, read-out: IC50 WT, Km ATP
[7] = ATP at Km, read-out: IC50 L858R/C797S, Km ATP

Chain of EGFR L858R/T790M/C797S (P00533 25-1210 T790M/C797S/L858R): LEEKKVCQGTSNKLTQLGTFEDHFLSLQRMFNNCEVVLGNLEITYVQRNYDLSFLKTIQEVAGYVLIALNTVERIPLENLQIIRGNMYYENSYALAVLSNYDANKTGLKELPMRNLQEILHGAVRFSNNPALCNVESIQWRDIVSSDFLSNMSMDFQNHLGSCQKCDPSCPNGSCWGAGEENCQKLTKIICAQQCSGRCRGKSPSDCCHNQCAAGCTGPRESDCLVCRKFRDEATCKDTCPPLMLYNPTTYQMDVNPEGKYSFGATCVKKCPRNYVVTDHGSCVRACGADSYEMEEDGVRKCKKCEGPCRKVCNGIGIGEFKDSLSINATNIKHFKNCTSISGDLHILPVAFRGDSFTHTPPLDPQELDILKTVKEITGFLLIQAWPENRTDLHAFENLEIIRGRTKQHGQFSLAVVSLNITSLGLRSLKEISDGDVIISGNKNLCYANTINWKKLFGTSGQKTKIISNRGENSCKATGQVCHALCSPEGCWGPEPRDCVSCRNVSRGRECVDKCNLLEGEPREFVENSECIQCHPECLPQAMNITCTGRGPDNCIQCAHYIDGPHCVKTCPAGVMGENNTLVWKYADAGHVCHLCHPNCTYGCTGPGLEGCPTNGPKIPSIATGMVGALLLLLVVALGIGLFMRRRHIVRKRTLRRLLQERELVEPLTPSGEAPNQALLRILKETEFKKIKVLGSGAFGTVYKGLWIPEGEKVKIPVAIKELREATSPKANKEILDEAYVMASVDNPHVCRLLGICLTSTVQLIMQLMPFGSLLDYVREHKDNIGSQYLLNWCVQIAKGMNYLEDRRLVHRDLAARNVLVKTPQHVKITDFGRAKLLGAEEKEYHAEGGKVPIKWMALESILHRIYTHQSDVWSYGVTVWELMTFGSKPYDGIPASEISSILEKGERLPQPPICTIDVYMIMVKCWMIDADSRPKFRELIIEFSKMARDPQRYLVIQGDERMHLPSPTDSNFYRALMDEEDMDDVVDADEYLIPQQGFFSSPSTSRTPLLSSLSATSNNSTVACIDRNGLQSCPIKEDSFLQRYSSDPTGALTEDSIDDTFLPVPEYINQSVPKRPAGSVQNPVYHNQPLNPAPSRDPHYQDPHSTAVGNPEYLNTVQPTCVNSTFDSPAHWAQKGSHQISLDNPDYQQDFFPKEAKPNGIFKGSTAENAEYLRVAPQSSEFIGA
Chain of EGFR del19/T790M/C797S (P00533 with tags, fused parts or gaps DEL746-750/T790M/C797S): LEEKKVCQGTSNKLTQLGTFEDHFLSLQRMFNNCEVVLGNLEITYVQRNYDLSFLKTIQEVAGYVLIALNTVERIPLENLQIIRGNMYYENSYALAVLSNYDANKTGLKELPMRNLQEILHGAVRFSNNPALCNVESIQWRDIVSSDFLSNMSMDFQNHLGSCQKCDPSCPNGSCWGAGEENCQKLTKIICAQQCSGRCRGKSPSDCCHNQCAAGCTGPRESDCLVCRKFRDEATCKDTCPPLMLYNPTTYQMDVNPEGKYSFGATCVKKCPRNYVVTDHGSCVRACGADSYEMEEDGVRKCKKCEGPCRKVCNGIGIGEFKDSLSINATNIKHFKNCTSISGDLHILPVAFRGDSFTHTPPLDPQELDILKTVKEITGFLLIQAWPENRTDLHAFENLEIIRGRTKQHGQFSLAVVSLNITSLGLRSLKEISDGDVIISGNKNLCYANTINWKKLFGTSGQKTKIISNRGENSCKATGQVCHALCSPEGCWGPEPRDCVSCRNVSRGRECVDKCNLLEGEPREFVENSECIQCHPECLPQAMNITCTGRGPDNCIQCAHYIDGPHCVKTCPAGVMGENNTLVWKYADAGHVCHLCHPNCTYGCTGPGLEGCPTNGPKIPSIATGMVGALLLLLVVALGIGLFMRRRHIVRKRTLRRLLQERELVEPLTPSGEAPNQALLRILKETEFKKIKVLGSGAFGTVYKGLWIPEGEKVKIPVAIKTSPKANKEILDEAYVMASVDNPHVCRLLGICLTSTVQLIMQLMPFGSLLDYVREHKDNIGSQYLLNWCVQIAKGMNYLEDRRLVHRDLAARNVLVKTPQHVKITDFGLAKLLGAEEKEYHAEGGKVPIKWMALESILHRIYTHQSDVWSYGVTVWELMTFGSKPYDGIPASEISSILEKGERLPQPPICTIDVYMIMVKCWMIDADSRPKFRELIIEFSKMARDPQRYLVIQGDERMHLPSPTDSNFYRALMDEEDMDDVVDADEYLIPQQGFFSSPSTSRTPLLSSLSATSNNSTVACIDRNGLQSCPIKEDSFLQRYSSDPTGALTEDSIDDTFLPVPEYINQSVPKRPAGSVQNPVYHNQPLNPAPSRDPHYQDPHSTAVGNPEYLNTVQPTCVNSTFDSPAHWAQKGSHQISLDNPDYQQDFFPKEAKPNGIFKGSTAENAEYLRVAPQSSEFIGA
Chain of EGFR L858R/C797S (P00533 25-1210 C797S/L858R): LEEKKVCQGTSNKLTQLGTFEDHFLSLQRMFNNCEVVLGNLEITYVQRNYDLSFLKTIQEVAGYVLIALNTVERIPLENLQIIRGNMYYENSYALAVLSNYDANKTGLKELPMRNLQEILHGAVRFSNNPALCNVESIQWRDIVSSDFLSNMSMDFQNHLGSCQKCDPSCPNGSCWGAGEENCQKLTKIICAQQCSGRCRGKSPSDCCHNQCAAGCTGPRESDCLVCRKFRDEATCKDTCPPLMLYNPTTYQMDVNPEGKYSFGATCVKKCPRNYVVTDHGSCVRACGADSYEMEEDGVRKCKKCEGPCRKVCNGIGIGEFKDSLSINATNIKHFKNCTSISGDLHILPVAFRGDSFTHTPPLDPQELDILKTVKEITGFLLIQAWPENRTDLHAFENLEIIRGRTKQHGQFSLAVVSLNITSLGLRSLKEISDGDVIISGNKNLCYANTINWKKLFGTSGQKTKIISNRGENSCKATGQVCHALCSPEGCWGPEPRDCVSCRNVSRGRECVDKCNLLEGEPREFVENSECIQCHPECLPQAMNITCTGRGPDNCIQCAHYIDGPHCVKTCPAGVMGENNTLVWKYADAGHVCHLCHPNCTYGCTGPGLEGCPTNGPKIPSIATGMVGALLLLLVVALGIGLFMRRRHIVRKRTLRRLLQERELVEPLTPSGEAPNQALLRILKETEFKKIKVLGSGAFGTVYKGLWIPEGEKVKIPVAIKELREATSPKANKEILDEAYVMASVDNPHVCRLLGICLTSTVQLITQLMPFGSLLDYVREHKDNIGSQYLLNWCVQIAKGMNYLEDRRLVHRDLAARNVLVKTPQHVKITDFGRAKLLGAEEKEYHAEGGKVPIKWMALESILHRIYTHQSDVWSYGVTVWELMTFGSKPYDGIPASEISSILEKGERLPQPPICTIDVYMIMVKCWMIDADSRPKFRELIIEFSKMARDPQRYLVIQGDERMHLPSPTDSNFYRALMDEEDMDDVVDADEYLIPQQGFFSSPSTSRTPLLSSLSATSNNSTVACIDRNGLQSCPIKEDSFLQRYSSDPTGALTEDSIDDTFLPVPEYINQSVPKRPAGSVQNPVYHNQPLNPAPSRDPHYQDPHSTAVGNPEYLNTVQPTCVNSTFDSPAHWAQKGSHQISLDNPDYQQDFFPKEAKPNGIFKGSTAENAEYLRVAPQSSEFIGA
Chain of EGFR wildtype (P00533 25-1210): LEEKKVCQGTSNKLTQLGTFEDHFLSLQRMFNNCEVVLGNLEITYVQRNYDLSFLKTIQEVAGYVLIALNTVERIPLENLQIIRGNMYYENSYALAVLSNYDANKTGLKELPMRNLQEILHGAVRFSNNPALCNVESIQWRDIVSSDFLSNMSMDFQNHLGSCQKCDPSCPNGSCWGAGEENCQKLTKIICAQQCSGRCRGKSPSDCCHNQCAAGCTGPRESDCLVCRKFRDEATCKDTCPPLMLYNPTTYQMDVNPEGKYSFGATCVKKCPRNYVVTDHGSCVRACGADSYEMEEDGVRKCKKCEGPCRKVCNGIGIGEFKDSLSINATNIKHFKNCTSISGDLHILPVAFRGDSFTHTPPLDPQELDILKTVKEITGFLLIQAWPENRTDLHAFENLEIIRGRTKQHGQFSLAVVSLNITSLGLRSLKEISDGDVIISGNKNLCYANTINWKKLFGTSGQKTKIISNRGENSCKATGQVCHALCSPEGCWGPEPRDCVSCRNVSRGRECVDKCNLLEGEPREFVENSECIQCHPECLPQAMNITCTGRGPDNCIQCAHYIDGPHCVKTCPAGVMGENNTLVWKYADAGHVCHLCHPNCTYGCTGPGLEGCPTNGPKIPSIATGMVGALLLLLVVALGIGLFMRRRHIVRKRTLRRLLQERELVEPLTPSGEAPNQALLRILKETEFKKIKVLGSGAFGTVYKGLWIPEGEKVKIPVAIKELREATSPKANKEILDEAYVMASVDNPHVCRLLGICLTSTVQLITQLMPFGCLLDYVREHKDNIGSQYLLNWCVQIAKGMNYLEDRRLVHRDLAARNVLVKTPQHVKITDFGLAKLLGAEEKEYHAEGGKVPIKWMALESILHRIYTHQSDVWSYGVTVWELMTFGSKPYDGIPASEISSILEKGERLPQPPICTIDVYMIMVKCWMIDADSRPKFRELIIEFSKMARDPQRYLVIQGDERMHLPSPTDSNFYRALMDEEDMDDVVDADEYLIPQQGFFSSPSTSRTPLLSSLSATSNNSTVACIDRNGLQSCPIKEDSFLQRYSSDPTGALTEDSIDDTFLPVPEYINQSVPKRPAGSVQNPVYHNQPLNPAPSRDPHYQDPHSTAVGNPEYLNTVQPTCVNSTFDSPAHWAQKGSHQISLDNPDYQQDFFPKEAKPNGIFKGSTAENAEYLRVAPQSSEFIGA

Row | SMILES | IC50 (EGFR del19/T790M/C797S; [1]) [nM] | IC50 (EGFR del19/T790M/C797S; [2]) [nM] | IC50 (EGFR L858R/T790M/C797S; [3]) [nM] | IC50 (EGFR L858R/T790M/C797S; [4]) [nM] | IC50 (EGFR del19/C797S; [5]) [nM] | IC50 (EGFR del19/C797S; IC50 del19/C797S, 100 μM ATP) [nM] | IC50 (EGFR L858R/C797S; IC50 L858R/C797S, 100 μM ATP) [nM] | IC50 (EGFR wildtype; [6]) [nM] | IC50 (EGFR wildtype; IC50 WT, 100 μM ATP) [nM] | IC50 (EGFR del19/T790M/C797S; read-out: IC50 del19/T790M/C797S, 100 μM ATP) [nM] | IC50 (EGFR L858R/T790M/C797S; read-out: IC50 L858R/T790M/C797S, 100 μM ATP) [nM] | IC50 (EGFR del19/C797S; read-out: IC50 del19/C797S, 100 μM ATP) [nM] | IC50 (EGFR L858R/C797S; [7]) [nM] | IC50 (EGFR L858R/C797S; read-out: IC50 L858R/C797S, 100 μM ATP) [nM] | IC50 (EGFR wildtype; read-out: IC50 WT, 100 μM ATP) [nM]
1 | C[C@]1(O)CC[C@@H](Nc2cc(Nc3ccnc(-c4cnn(S(=O)(=O)C5CC5)c4)n3)ncc2-c2ccc(N3CC(F)(F)C3)cn2)CC1 [Example 224, (1s,4s)-4-((6′-((2-(1-(Cyclopropylsulfonyl)-1H-pyrazol-4-yl)pyrimidin-4-yl)amino)-5-(3,3-difluoroazetidin-1-yl)-[2,3′-bipyridin]-4′-yl)amino)-1-methylcyclohexan-1-ol] | 2 | 1.6 | 0.4 | 1.4 | 2.1 | 3.5 | 171 | 5.2 | > 10000 |  |  |  |  |  | 
2 | CC(C)(O)[C@H]1CC[C@@H](Nc2cc(Nc3ccnc(-c4cnn(S(=O)(=O)C5CC5)c4)n3)ncc2-c2ccc(N3CC(F)(F)C3)cn2)CC1 [Example 225, 2-((1s,4s)-4-((6′-((2-(1-(Cyclopropylsulfonyl)-1H-pyrazol-4-yl)pyrimidin-4-yl)amino)-5-(3,3-difluoroazetidin-1-yl)-[2,3′-bipyridin]-4′-yl)amino)cyclohexyl)propan-2-ol] | 6.9 |  | 2.5 |  | 16.1 |  |  | 33.8 |  | 6 | 4.4 | 19.8 | 10.2 | 799 | > 10000
3 | CC(C)(O)C1CCC(Nc2cc(Nc3ccnc(-c4cnn(S(=O)(=O)C5CC5)c4)n3)ncc2-c2ccc(C(O)C(F)(F)F)cn2)CC1 (stereo not shown) [Example 229, 2-((1s,4s)-4-((6′-((2-(1-(Cyclopropylsulfonyl)-1H-pyrazol-4-yl)pyrimidin-4-yl)amino)-5-(2,2,2-trifluoro-1-hydroxyethyl)-[2,3′-bipyridin]-4′-yl)amino)cyclohexyl)propan-2-ol] | 3.3 | 4.4 | 0.9 | 1.9 | 4.8 | 20.8 | 96.1 | 17.4 | 9480 |  |  |  | 11.5 |  | 
4 | CC(O)(c1ccc(-c2cnc(Nc3ccnc(-c4cnn(S(=O)(=O)C5CC5)c4)n3)cc2N[C@H]2CCC[C@H](CO)C2)nc1)C(F)(F)F (stereo partly drawn) [Example 232, 2-(6′-((2-(1-(Cyclopropylsulfonyl)-1H-pyrazol-4-yl)pyrimidin-4-yl)amino)-4′-(((1S,3S)-3-(hydroxymethyl)cyclohexyl)amino)-[2,3′-bipyridin]-5-yl)-1,1,1-trifluoropropan-2-ol] | 3.9 | 2.1 | 0.8 | 0.8 | 3.3 | 9.5 | 60.2 | 19 | 8760 |  |  |  | 6.7 |  | 
5 | CC(C)(O)C1CCC(Nc2cc(Nc3ccnc(-c4cnn(S(=O)(=O)C5CC5)c4)n3)ncc2-c2ccc(C(C)(O)C(F)(F)F)cn2)CC1 (stereo not shown) [Example 233, 2-(6′-((2-(1-(Cyclopropylsulfonyl)-1H-pyrazol-4-yl)pyrimidin-4-yl)amino)-4′-(((1s,4s)-4-(2-hydroxypropan-2-yl)cyclohexyl)amino)-[2,3′-bipyridin]-5-yl)-1,1,1-trifluoropropan-2-ol] | 4.7 | 6.3 | 0.9 | 2.7 | 7.1 | 19.2 | 36 | 18.3 | 6750 |  |  |  | 4.7 |  | 

The next compounds have a lower IC50 (EGFR del19/T790M/C797S; [1]) than those just listed; values first:

Row | IC50 (EGFR del19/T790M/C797S; [1]) [nM] | IC50 (EGFR del19/T790M/C797S; [2]) [nM] | IC50 (EGFR L858R/T790M/C797S; [3]) [nM] | IC50 (EGFR L858R/T790M/C797S; [4]) [nM] | IC50 (EGFR del19/C797S; [5]) [nM] | IC50 (EGFR del19/C797S; IC50 del19/C797S, 100 μM ATP) [nM] | IC50 (EGFR L858R/C797S; IC50 L858R/C797S, 100 μM ATP) [nM] | IC50 (EGFR wildtype; [6]) [nM] | IC50 (EGFR wildtype; IC50 WT, 100 μM ATP) [nM] | IC50 (EGFR del19/T790M/C797S; read-out: IC50 del19/T790M/C797S, 100 μM ATP) [nM] | IC50 (EGFR L858R/T790M/C797S; read-out: IC50 L858R/T790M/C797S, 100 μM ATP) [nM] | IC50 (EGFR del19/C797S; read-out: IC50 del19/C797S, 100 μM ATP) [nM] | IC50 (EGFR L858R/C797S; [7]) [nM] | IC50 (EGFR L858R/C797S; read-out: IC50 L858R/C797S, 100 μM ATP) [nM] | IC50 (EGFR wildtype; read-out: IC50 WT, 100 μM ATP) [nM] | SMILES
6 | 1.9 | 2.9 | 0.5 | 1 | 5.6 | 14.3 | 64.9 | 19.3 | > 10000 |  |  |  | 12.2 |  |  | O=S(=O)(C1CC1)n1cc(-c2nccc(Nc3cc(N[C@H]4CCC[C@H](CO)C4)c(-c4ccc(C(O)C(F)(F)F)cn4)cn3)n2)cn1 (stereo partly drawn) [Example 228, 1-(6′-((2-(1-(Cyclopropylsulfonyl)-1H-pyrazol-4-yl)pyrimidin-4-yl)amino)-4′-(((1S,3S)-3-(hydroxymethyl)cyclohexyl)amino)-[2,3′-bipyridin]-5-yl)-2,2,2-trifluoroethan-1-ol]
7 | 1.4 | 2 | 0.4 | 0.9 | 1.7 | 6.4 | 4.6 | 4.1 | 502 |  |  |  | 1.2 |  |  | CC(O)(c1ccc(-c2cnc(Nc3ccnc(-c4cnn(S(=O)(=O)C5CC5)c4)n3)cc2NC2CCC(CO)CC2)nc1)C(F)(F)F (stereo not shown) [Example 231, 2-(6′-((2-(1-(Cyclopropylsulfonyl)-1H-pyrazol-4-yl)pyrimidin-4-yl)amino)-4′-(((1s,4s)-4-(hydroxymethyl)cyclohexyl)amino)-[2,3′-bipyridin]-5-yl)-1,1,1-trifluoropropan-2-ol]
8 | 1.1 |  | 0.4 | 0.6 | 1.7 | 6 | 7.8 | 5 | 1660 |  |  |  | 2.4 |  |  | CC1(O)CCC(Nc2cc(Nc3ccnc(-c4cnn(S(=O)(=O)C5CC5)c4)n3)ncc2-c2ccc(C(C)(O)C(F)(F)F)cn2)CC1 (stereo not shown) [Example 230, (1s,4s)-4-((6′-((2-(1-(Cyclopropylsulfonyl)-1H-pyrazol-4-yl)pyrimidin-4-yl)amino)-5-(1,1,1-trifluoro-2-hydroxypropan-2-yl)-[2,3′-bipyridin]-4′-yl)amino)-1-methylcyclohexan-1-ol]
9 | 0.9 |  | 0.4 | 0.8 | 1.9 | 7 | 10 | 5.2 | 835 |  |  |  | 2.5 |  |  | O=S(=O)(C1CC1)n1cc(-c2nccc(Nc3cc(NC4CCC(CO)CC4)c(-c4ccc(C(O)C(F)(F)F)cn4)cn3)n2)cn1 (stereo not shown) [Example 227, 1-(6′-((2-(1-(Cyclopropylsulfonyl)-1H-pyrazol-4-yl)pyrimidin-4-yl)amino)-4′-(((1s,4s)-4-(hydroxymethyl)cyclohexyl)amino)-[2,3′-bipyridin]-5-yl)-2,2,2-trifluoroethan-1-ol]
10 | 0.8 | 0.8 | 0.3 | 0.5 |  | 4.7 | 8.4 | 4.9 | 5120 |  |  |  | 2 |  |  | CC1(O)CCC(Nc2cc(Nc3ccnc(-c4cnn(S(=O)(=O)C5CC5)c4)n3)ncc2-c2ccc(C(O)C(F)(F)F)cn2)CC1 (stereo not shown) [Example 226, (1s,4s)-4-((6′-((2-(1-(Cyclopropylsulfonyl)-1H-pyrazol-4-yl)pyrimidin-4-yl)amino)-5-(2,2,2-trifluoro-1-hydroxyethyl)-[2,3′-bipyridin]-4′-yl)amino)-1-methylcyclohexan-1-ol]
11 | 0.5 | 0.3 | 0.2 | 0.2 | 0.2 | 0.5 | 0.7 | 0.7 | 122 |  |  |  | 0.3 |  |  | CN(C)CC1CCC(Nc2cc(Nc3ccnc(-c4cnn(S(=O)(=O)C5CC5)c4)n3)ncc2-c2ccc(C(C)(O)C(F)(F)F)cn2)CC1 (stereo not shown) [Example 234, 2-(6′-((2-(1-(Cyclopropylsulfonyl)-1H-pyrazol-4-yl)pyrimidin-4-yl)amino)-4′-(((1s,4s)-4-((dimethylamino)methyl)cyclohexyl)amino)-[2,3′-bipyridin]-5-yl)-1,1,1-trifluoropropan-2-ol]
